How the values were obtained:
Format in all cases: in vivo
Barnyard grass [1] = test: Herbicidal activity test for indoor pre-emergence soil treatment; design: key: level 1-9; higher = more weed remaining vs blank control; conditions: 150 g a.i./ha, visual inspection 21 days after treatment
In short: (§1)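 Pre-emergence test following NY/T 1155.3-2006: weed seeds were sown in moistened neutral sandy loam (≤2% organic matter) and covered with 0.5–2.0 cm of soil. After 24 h, the soil was sprayed with a 10% EC diluted in water at 150 g(a.i.)/ha. Damage was scored visually on a 1–9 scale at 21 days.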

green bristlegrass [2] = test: as above; design: key: level 1-9; higher = more weed remaining vs blank control; conditions: 150 g a.i./ha, visual inspection 21 days after treatment
In short: as §1

Piemarker [3] = test: as above; design: key: level 1-9; higher = more weed remaining vs blank control; conditions: 150 g a.i./ha, visual inspection 21 days after treatment
In short: as §1

Digitaria sanguinalis [4] = test: Field test for weed control in a corn field; conditions: 150 g a.i./ha, after treatment
In short: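 Field trial in a corn field following GB/T 17980.42-2000. Test compounds were formulated as 10% emulsifiable concentrates, diluted in water and sprayed post-emergence at 150 g(a.i.)/ha when corn had 2 to 5 leaves, with 4 replicates on 20 m^2 plots. Control of Digitaria sanguinalis was scored on a 1-9 scale based on weed damage relative to the untreated blank area.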

goosegrass = test: Field test for weed control in a corn field; conditions: 150 g a.i./ha, after treatment
In short: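 Weed control efficacy against goosegrass was tested in a corn field following GB/T 17980.42-2000. Compounds formulated as 10% emulsifiable concentrates were diluted in water and sprayed post-emergence at 150 g(a.i.)/ha when corn had 2 to 5 leaves, with 4 replicates of 20 m^2 plots. Herbicidal activity was rated on a 1-9 scale by damage symptoms and severity.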

Amaranthus retroflexus [5] = test: Field test for weed control in a corn field; conditions: 150 g a.i./ha, 30 days after treatment
In short: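 Field efficacy trial in a corn field following GB/T 17980.42-2000. Test compounds were formulated as 10% emulsifiable concentrates, diluted in water and sprayed post-emergence when corn had 2 to 5 leaves. Each treatment covered 20 m^2 with 4 replicates. A 25% mesotrione oil dispersion served as control. Damage to Amaranthus retroflexus was rated on a 1-9 scale against untreated blank plots.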

Barnyard grass [6] = test: Field test for weed control in a corn field; conditions: 150 g a.i./ha, 30 days after treatment
In short: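 Corn-field efficacy trial following GB/T 17980.42-2000. Test compounds were formulated as 10% emulsifiable concentrates, diluted in water and sprayed post-emergence at 150 g(a.i.)/ha when corn had 2 to 5 leaves. Each treatment was replicated 4 times on 20 m^2 plots. Barnyard grass control was rated on a 1-9 damage scale.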

green bristlegrass [7] = test: Field test for weed control in a corn field; conditions: 150 g a.i./ha, after treatment
In short: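 Post-emergence weed control was tested in a corn field following GB/T 17980.42-2000. When the corn had 2 leaves to 5 leaves after sowing, 10% emulsifiable concentrates diluted in water were sprayed at 150 g(a.i.)/ha on 20 m^2 plots, four replicates per treatment. Effects on green bristlegrass were scored on a 1-9 damage scale relative to the blank control area.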

Acalypha australis = test: Field test for weed control in a corn field; conditions: 150 g a.i./ha, after treatment
In short: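 Post-emergence field trial in a corn field following GB/T 17980.42-2000. Test compounds were formulated as 10% emulsifiable concentrates, diluted in water, and sprayed at 150 g(a.i.)/ha when corn had 2 to 5 leaves, with 4 replicates on 20 m^2 plots. Mesotrione 25% oil dispersion served as the control agent. Weed control was scored on a 1-9 scale.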

Chenopodium album = test: Field test for weed control in a corn field; conditions: 150 g a.i./ha, after treatment
In short: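 A corn-field efficacy trial following GB/T 17980.42-2000 tested post-emergence control of Chenopodium album. Test compounds formulated as 10% emulsifiable concentrates were diluted in water and sprayed at 150 g(a.i.)/ha when the corn had 2 leaves to 5 leaves, on 20 m^2 plots with 4 replicates. Herbicidal activity was rated on a 1-9 scale by damage symptoms and severity.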

nutgrass flatsedge = test: Field test for weed control in a corn field; conditions: 150 g a.i./ha, after treatment
In short: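 A corn field efficacy trial following GB/T 17980.42-2000 assessed post-emergence control of nutgrass flatsedge. Test compounds were formulated as 10% emulsifiable concentrates, diluted in water, and sprayed at 150 g(a.i.)/ha when the corn had 2 to 5 leaves. Each treatment had 4 replicates on 20 m^2 plots. Herbicidal activity was graded on a 1-9 scale by damage symptoms and severity.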

Portulaca oleracea = test: Field test for weed control in a corn field; conditions: 150 g a.i./ha, after treatment
In short: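 Field efficacy trial in corn following GB/T 17980.42-2000. Test compounds were prepared as 10% emulsifiable concentrates, diluted in water, and sprayed at 150 g(a.i.)/ha when corn had 2 to 5 leaves after sowing. Plots were 20 m^2 with 4 replicates per treatment. Herbicidal activity was scored on a 1-9 scale from weed damage symptoms and severity.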

Convolvulus arvensis = test: Field test for weed control in a corn field; conditions: 150 g a.i./ha, after treatment
In short: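 Field trial of weed control against Convolvulus arvensis in corn, run following GB/T 17980.42-2000. Test agents were formulated as 10% emulsifiable concentrates and sprayed in water at 150 g(a.i.)/ha when corn plants had 2 to 5 leaves. Each treatment was replicated 4 times on 20 m^2 plots, and 25% mesotrione oil dispersion served as the control agent.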

Solanum nigrum = test: Field test for weed control in a corn field; conditions: 150 g a.i./ha, 30 days after treatment
In short: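 Post-emergence weed control was tested in a corn field following GB/T 17980.42-2000. Compounds were made into 10% emulsifiable concentrates, diluted in water and sprayed at 150 g(a.i.)/ha when corn had 2 to 5 leaves after sowing, in 20 m^2 plots with 4 replicates. Effects on Solanum nigrum were graded on a 1-9 scale relative to the blank control area.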

Digitaria sanguinalis [8] = test: Herbicidal activity test for indoor post-emergence spraying on stems and leaves; design: key: grade level by weed remaining vs blank control, e.g. 5 = 10.1-15%; conditions: 150 g a.i./ha, visual inspection 21 days after treatment
In short: (§2)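 Post-emergence stem and leaf spray in an indoor test following NY/T 1155.4-2006, with weeds sown and grown in a greenhouse. Effect scored visually 21 days after treatment as graded levels, each level set by the percentage of weed remaining relative to the blank control area.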

Amaranthus retroflexus [9] = test: as above; design: key: grade level by weed remaining vs blank control, e.g. 5 = 10.1-15%; conditions: 150 g a.i./ha, visual inspection 21 days after treatment
In short: as §2

Barnyard grass [10] = test: as above; design: key: grade level by weed remaining vs blank control, e.g. 5 = 10.1-15%; conditions: 150 g a.i./ha, visual inspection 21 days after treatment
In short: as §2

green bristlegrass [11] = test: as above; design: key: grade level by weed remaining vs blank control, e.g. 5 = 10.1-15%; conditions: 150 g a.i./ha, visual inspection 21 days after treatment
In short: as §2

Piemarker [12] = test: as above; design: key: grade level by weed remaining vs blank control, e.g. 5 = 10.1-15%; conditions: 150 g a.i./ha, visual inspection 21 days after treatment
In short: as §2

Humulus scandens [13] = test: as above; design: key: grade level by weed remaining vs blank control, e.g. 5 = 10.1-15%; conditions: 150 g a.i./ha, visual inspection 21 days after treatment
In short: as §2

Digitaria sanguinalis [14] = test: Herbicidal activity test for indoor pre-emergence soil treatment; design: key: 1-9 levels; higher = more weed remaining vs blank control; conditions: 150 g a.i./ha, visual inspection 21 days after treatment
In short: as §1

Amaranthus retroflexus [15] = test: as above; design: key: 1-9 levels; higher = more weed remaining vs blank control; conditions: 150 g a.i./ha, visual inspection 21 days after treatment
In short: as §1

Humulus scandens [16] = test: as above; conditions: 150 g a.i./ha, visual inspection 21 days after treatment
In short: as §1

Gramineae = test: Post-emergence herbicidal activity test in a paddy field; design: key: level scale; higher level = more weed left vs blank control; conditions: 150 g a.i./ha (penoxsulam control 250 g(a.i.)/h)
In short: (§3)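 Efficacy was visually estimated 15 and 30 days after spraying, grading weed coverage relative to an untreated neighbouring plot (level 2 = 0 to 2.5%, level 9 = 67.6 to 100%). Treatments were 150 g(a.i.)/ha from 10% emulsifiable concentrates applied at the 4-5 leaf rice stage, four repeats of 50 m^2 each.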

Cyperaceae = test: as above; design: key: level scale; higher level = more weed left vs blank control; conditions: 150 g a.i./ha (penoxsulam control 250 g(a.i.)/h)
In short: as §3

Broadleaf weed = test: as above; design: key: level scale; higher level = more weed left vs blank control; conditions: 150 g a.i./ha (penoxsulam control 250 g(a.i.)/h)
In short: as §3

Compound	Herbicidal Activity Barnyard grass (Barnyard grass [1])	Herbicidal Activity Green bristlegrass (green bristlegrass [2])	Herbicidal Activity Piemarker (Piemarker [3])	Post-emergence weed control effect, Digitaria sanguinalis (Digitaria sanguinalis [4])	Post-emergence weed control effect, Goose grass (goosegrass)	Post-emergence weed control effect, Amaranthus retroflexus (Amaranthus retroflexus [5])	Post-emergence weed control effect, Barnyard grass (Barnyard grass [6])	Post-emergence weed control effect, Green bristlegrass (green bristlegrass [7])	Post-emergence weed control effect, Acalypha australis (Acalypha australis)	Post-emergence weed control effect, Chenopodium album (Chenopodium album)	Post-emergence weed control effect, Nutgrass flatsedge (nutgrass flatsedge)	Post-emergence weed control effect, Portulaca oleracea (Portulaca oleracea)	Post-emergence weed control effect, Convolvulus arvensis (Convolvulus arvensis)	Post-emergence weed control effect, Solanum nigrum (Solanum nigrum)	Herbicidal Activity Digitaria sanguinalis (Digitaria sanguinalis [8])	Herbicidal Activity Amaranthus retroflexus (Amaranthus retroflexus [9])	Herbicidal Activity Barnyard grass (Barnyard grass [10])	Herbicidal Activity Green bristlegrass (green bristlegrass [11])	Herbicidal Activity Piemarker (Piemarker [12])	Herbicidal Activity Humulus scandens (Humulus scandens [13])	other results
COc1ccccc1C(=O)NCc1cccc(C)c1 [Compound A14, 2-methoxy-N-(3-methylbenzyl)benzamide]	2 (equivalent to 0 to 2.5% of the weed in the blank control area)	1	1	2 (equivalent to 0 to 2.5% of the weed in the blank control area)	1	1	1	1	2 (equivalent to 0 to 2.5% of the weed in the blank control area)	1	2 (equivalent to 0 to 2.5% of the weed in the blank control area)	1	1	2 (equivalent to 0 to 2.5% of the weed in the blank control area)	1	1	2 (equivalent to 0 to 2.5% of the weed in the blank control area)	1	1	1	Herbicidal Activity Digitaria sanguinalis (Digitaria sanguinalis [14]): 2 (equivalent to 0 to 2.5% of the weed in the blank control area); Herbicidal Activity Amaranthus retroflexus (Amaranthus retroflexus [15]): 2 (equivalent to 0 to 2.5% of the weed in the blank control area); Herbicidal Activity Humulus scandens (Humulus scandens [16]): 3 (equivalent to 2.6 to 5% of the weed in the blank control area); Herbicidal activity 15 days after treatment Gramineae (Gramineae): 1; Herbicidal activity 30 days after treatment Gramineae (Gramineae): 2 (equivalent to 0 to 2.5% of the weed in the blank control area); Herbicidal activity 15 days after treatment Cyperaceae (Cyperaceae): 1; Herbicidal activity 30 days after treatment Cyperaceae (Cyperaceae): 2 (equivalent to 0 to 2.5% of the weed in the blank control area); Herbicidal activity 15 days after treatment Broadleaf weed (Broadleaf weed): 1; Herbicidal activity 30 days after treatment Broadleaf weed (Broadleaf weed): 2 (equivalent to 0 to 2.5% of the weed in the blank control area)
COc1ccc(OC)c(C(=O)NCc2cccc(F)c2)c1 [Compound A22, N-(3-fluorobenzyl)-2,5-dimethoxybenzamide]	1	2 (equivalent to 0 to 2.5% of the weed in the blank control area)	2 (equivalent to 0 to 2.5% of the weed in the blank control area)	1	2 (equivalent to 0 to 2.5% of the weed in the blank control area)	1	2 (equivalent to 0 to 2.5% of the weed in the blank control area)	2 (equivalent to 0 to 2.5% of the weed in the blank control area)	2 (equivalent to 0 to 2.5% of the weed in the blank control area)	1	2 (equivalent to 0 to 2.5% of the weed in the blank control area)	1	1	2 (equivalent to 0 to 2.5% of the weed in the blank control area)	1	1	1	2 (equivalent to 0 to 2.5% of the weed in the blank control area)	1	1	Herbicidal Activity Digitaria sanguinalis (Digitaria sanguinalis [14]): 1; Herbicidal Activity Amaranthus retroflexus (Amaranthus retroflexus [15]): 2 (equivalent to 0 to 2.5% of the weed in the blank control area); Herbicidal Activity Humulus scandens (Humulus scandens [16]): 4 (equivalent to 5.1 to 10% of the weed in the blank control area); Herbicidal activity 15 days after treatment Gramineae (Gramineae): 1; Herbicidal activity 30 days after treatment Gramineae (Gramineae): 1; Herbicidal activity 15 days after treatment Cyperaceae (Cyperaceae): 2 (equivalent to 0 to 2.5% of the weed in the blank control area); Herbicidal activity 30 days after treatment Cyperaceae (Cyperaceae): 1; Herbicidal activity 15 days after treatment Broadleaf weed (Broadleaf weed): 2 (equivalent to 0 to 2.5% of the weed in the blank control area); Herbicidal activity 30 days after treatment Broadleaf weed (Broadleaf weed): 1

From US20220330549A1, “USE OF N-BENZYLBENZAMIDE-BASED COMPOUND AS HERBICIDE” (Northwest A&F University, priority 2020, published 2022)
